From patent US8048892B2, “Azaquinolone based compounds exhibiting prolyl hydroxylase inhibitory activity, compositions, and uses thereof” (Amgen Inc., priority 2006, dated 2011)
pIC50: −log10 of the molar value. Structures can show the parent of a compound that is named as a salt.

Target: HIF PHD2 (Homo sapiens, UniProt Q9GZT9)
Assay: PHD2 inhibition assay (TR-FRET, VCB-Eu detection of hydroxylated P564-HIF1α peptide)
Format: biochemical
Conditions: 2 nM PHD2, 100 nM P564-HIF1α peptide, 0.25 μM 2-oxoglutarate
Procedure: Inhibition of HIF PHD2 activity was quantified utilizing the TR-FRET technology. HIF PHD2 catalyzes a hydroxyl modification on the proline residue of the P564-HIF1α peptide substrate (Biotin-DLEMLAPYIPMDDDFQL (SEQ ID NO: 7)) resulting in recognition and binding of the europylated Von Hippel-Lindau protein (pVHL), elongin B and elongin C heterotrimeric (VCB-Eu) complex.
The PHD2 inhibition assay was executed by addition of freshly dissolved FeCl2 to 178.57 μM (100 μM final concentration) in PHD2 Reaction Buffer containing 30 mM MES, pH 6, 10 mM NaCl, 0.25% Brij-35, 0.01% BSA, and 1% DMSO. 28 μL of the iron solution and 2 μL of inhibitor compounds serially diluted in 100% DMSO (5% DMSO final) were added to black polypropylene 96-well microtiter plates. To that, 10 μL of 10 nM PHD2 (2 nM final) was added to all wells of the plate except for the 8 wells of column 12 (LO control), and allowed to incubate at room temperature on the shaker for one hour. Column 6 was the HI control containing PHD2 enzyme and 5% DMSO vehicle, but no inhibitor compound. To initiate the PHD2 enzymatic reaction, 10 μL of a solution containing 500 nM P564-HIF1α peptide (100 nM final), 10 mM ascorbic acid (2 mM final), and 1.25 μM 2-oxoglutarate (α-ketoglutarate; 0.25 μM final) in PHD2 Reaction Buffer was added to all wells of the plate and allowed to incubate on the shaker at room temperature for one hour.
The reaction was terminated by addition of 25 μL TR-FRET Buffer (50 mM TRIS-HCl, pH 9, 100 mM NaCl, 0.05% BSA, and 0.5% Tween-20) containing 150 mM succinate (product inhibitor; 50 mM final), 75 nM streptavidin-APC (25 nM final), and 7.5 nM VCB-Eu (2.5 nM final). The TR-FRET detection reagents were placed on a shaker for 1 hour to reach binding equilibrium before reading on the Discovery platform (PerkinElmer). Europium is excited at 315 nm and phosphoresces at 615 nm with a large Stoke's shift. APC, in turn, emits at 655 nm upon excitation at 615 nm. The TR-FRET signal is measured as the ratio of the APC 655 nm signal divided by the internal europium reference 615 nm emission signal.
The POC (percentage of control) was determined by comparing the signal from hydroxylated peptide substrate in the enzyme reaction containing inhibitor compound with that from PHD2 enzyme with DMSO vehicle alone (HI control), and no enzyme (LO control). POC was calculated using the formula: % control (POC)=(cpd−average LO)/(average HI−average LO)*100. Data (consisting of POC and inhibitor concentration in μM) was fitted to a 4-parameter equation (y=A+((B−A)/(1+((x/C)^D))), where A is the minimum y (POC) value, B is the maximum y (POC), C is the x (cpd concentration) at the point of inflection and D is the slope factor) using a Levenburg-Marquardt non-linear regression algorithm.

Sequence of HIF PHD2 (Q9GZT9 whole entry): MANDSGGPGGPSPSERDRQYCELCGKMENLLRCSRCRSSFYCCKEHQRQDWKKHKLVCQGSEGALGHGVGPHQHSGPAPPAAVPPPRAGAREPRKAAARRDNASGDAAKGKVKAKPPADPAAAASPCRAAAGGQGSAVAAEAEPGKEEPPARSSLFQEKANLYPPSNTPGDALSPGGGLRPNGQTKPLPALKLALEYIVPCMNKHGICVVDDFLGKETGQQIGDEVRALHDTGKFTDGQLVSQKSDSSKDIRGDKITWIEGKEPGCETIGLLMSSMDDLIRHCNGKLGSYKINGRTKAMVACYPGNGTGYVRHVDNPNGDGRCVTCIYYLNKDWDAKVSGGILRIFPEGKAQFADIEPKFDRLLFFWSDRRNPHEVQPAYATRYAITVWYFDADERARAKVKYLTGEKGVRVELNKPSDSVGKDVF

| pIC50 | Structure (SMILES) |
| --- | --- |
| 7.00 to 7.30 | Cn1c(=O)c(C(=O)NCC(=O)O)c(O)c2cc(-c3ccccc3C(N)=O)cnc21 [Example 41, N-((6-(2-(Aminocarbonyl)phenyl)-4-hydroxy-1-methyl-2-oxo-1,2-dihydro-1,8-naphthyridin-3-yl)carbonyl)glycine] |
| > 7.30 | Cn1c(=O)c(C(=O)NCC(=O)O)c(O)c2cc(Cl)[n+]([O-])cc21 [Example 123, 2-(6-Chloro-4-hydroxy-1-methyl-2-oxo-1,2-dihydro-1,7-naphthyridine-3-carboxamido)acetic acid, N-oxide] |
| 7.00 to 7.30 | Cn1c(=O)c(C(=O)NCC(=O)O)c(O)c2cc(-c3cccc(N4CCOCC4)c3)cnc21 [Example 54] |
| > 7.30 | CCc1cnc2c(c1)c(O)c(C(=O)NCC(=O)O)c(=O)n2C [Example 79, 2-(6-Ethyl-4-hydroxy-1-methyl-2-oxo-1,2-dihydro-1,8-naphthyridine-3-carboxamido)acetic acid] |
| 7.00 to 7.30 | CC#Cc1cnc2c(O)c(C(=O)NCC(=O)O)c(=O)n(C)c2c1 [Example 8, 2-(4-Hydroxy-1-methyl-2-oxo-7-(prop-1-ynyl)-1,2-dihydro-1,5-naphthyridine-3-carboxamido)acetic acid] |
| > 7.30 | C#Cc1ccc2c(O)c(C(=O)NCC(=O)O)c(=O)n(C)c2n1 [Example 20, 2-(7-Ethynyl-4-hydroxy-1-methyl-2-oxo-1,2-dihydro-1,8-naphthyridine-3-carboxamido)acetic acid] |
| > 7.30 | Cc1ccccc1-c1cc2c(O)c(C(=O)NCC(=O)O)c(=O)n(C)c2c(C(F)(F)F)n1 [Example 125, N-((4-Hydroxy-1-methyl-6-(2-methylphenyl)-2-oxo-8-(trifluoromethyl)-1,2-dihydro-1,7-naphthyridin-3-yl)carbonyl)glycine] |
| > 7.30 | Cn1c(=O)c(C(=O)NCC(=O)O)c(O)c2cc(-c3cccnc3)cnc21 [Example 44, 2-(4-Hydroxy-1-methyl-2-oxo-6-(pyridin-3-yl)-1,2-dihydro-1,8-naphthyridine-3-carboxamido)acetic acid] |
| 7.00 to 7.30 | Cn1c(=O)c(C(=O)NCC(=O)O)c(O)c2cc(C3=CCNCC3)ncc21 [Example 114, 2-(4-Hydroxy-1-methyl-2-oxo-6-(1,2,3,6-tetrahydropyridin-4-yl)-1,2-dihydro-1,7-naphthyridine-3-carboxamido)acetic acid, Trifluoroacetic acid salt] |
| 7.00 to 7.30 | Cn1c(=O)c(C(=O)NCC(=O)O)c(O)c2cc(-c3cccnc3)ncc21 [Example 107, N-((4-Hydroxy-1-methyl-2-oxo-6-(3-pyridinyl)-1,2-dihydro-1,7-naphthyridin-3-yl)carbonyl)glycine] |
| > 7.30 | COc1ncccc1-c1cnc2c(c1)c(O)c(C(=O)NCC(=O)O)c(=O)n2C [Example 53, N-((4-Hydroxy-1-methyl-6-(2-(methyloxy)-3-pyridinyl)-2-oxo-1,2-dihydro-1,8-naphthyridin-3-yl)carbonyl)glycine] |
| > 7.30 | Cn1c(=O)c(C(=O)NCC(=O)O)c(O)c2cc(-c3ccnc(F)c3)cnc21 [Example 65, 2-(6-(2-Fluoropyridin-4-yl)-4-hydroxy-1-methyl-2-oxo-1,2-dihydro-1,8-naphthyridine-3-carboxamido)acetic acid] |
| 6.30 to 7.00 | Cn1c(=O)c(C(=O)NCC(=O)O)c(O)c2cc(C3CCCCC3)c(C(F)(F)F)nc21 [Example 95, 2-(6-Cyclohexyl-4-hydroxy-1-methyl-2-oxo-7-(trifluoromethyl)-1,2-dihydro-1,8-naphthyridine-3-carboxamido)acetic acid] |
| > 7.30 | Cn1c(=O)c(C(=O)NCC(=O)O)c(O)c2cc(-c3cc(Cl)ncn3)cnc21 [Example 31, 2-(6-(6-Chloropyrimidin-4-yl)-4-hydroxy-1-methyl-2-oxo-1,2-dihydro-1,8-naphthyridine-3-carboxamido)acetic acid] |
